According to PubChem BioAssay AID1259411 (Chemical Carcinogenesis Research Information System (CCRIS), 2018):
Calls of active or inactive are those of the source. How the calls were made is not given here.

Test system: rodent carcinogenicity bioassays, tumor incidence
Test: CCRIS carcinogenicity studies
How it was run: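 Archive of carcinogenicity, mutagenicity, tumor promotion and tumor inhibition results drawn from journals, NCI reports and other sources, expert-reviewed; covers 1985-2011 and is no longer updated.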

For `CN1[C@@H]2CC(OC(=O)[C@H](CO)c3ccccc3)C[C@H]1[C@@H]1O[C@@H]12` (stereo partly specified), the carcinogen call (Species: MOUSE, Strain/Sex: B6C3F1/FEMALE, Route: GAVAGE, Dose: 0, 1, 5, 25 MG/KG IN DISTILLED WATER FOR 104-105 WK (STUDY DURATION: 105 WK), Dose: 0, 1, 5, 25 MG/KG IN DISTILLED WATER FOR 104-105 WK (STUDY DURATION: 105 WK)) was “inactive; negative”, the carcinogen call (Species: MOUSE, Strain/Sex: B6C3F1/FEMALE, Route: GAVAGE, Dose: 0, 25 MG/KG IN WATER 5 D/WK FOR 104 WK, CONTROL AND DOSED GROUPS FED AD LIBITUM (STUDY DURATION: 104 WK)) was “inactive; negative” and the carcinogen call (Species: MOUSE, Strain/Sex: B6C3F1/FEMALE, Route: GAVAGE, Dose: 0, 25 MG/KG IN WATER 5 D/WK FOR 104 WK, CONTROL GROUP DIET RESTRICTED TO LIMIT WEIGHTS TO 85% OF AD LIBITUM-FED GROUP (S) was “inactive; negative”. The carcinogen call (Species: MOUSE, Strain/Sex: B6C3F1/FEMALE, Route: GAVAGE, Dose: 0, 25 MG/KG IN WATER 5 D/WK FOR 104 WK, CONTROL GROUP WAS WEIGHT-MATCHED TO DOSED GROUP (STUDY DURATION: 104 WK)) was “inactive; negative”, the carcinogen call (Species: MOUSE, Strain/Sex: B6C3F1/FEMALE, Route: GAVAGE, Dose: 0, 25 MG/KG IN WATER 5 D/WK FOR 157 WK, CONTROL GROUP DIET RESTRICTED TO LIMIT WEIGHTS TO 85% OF AD LIBITUM-FED GROUPS () was “inactive; negative” and the carcinogen call (Species: MOUSE, Strain/Sex: B6C3F1/MALE, Route: GAVAGE, Dose: 0, 1, 5, 25 MG/KG IN DISTILLED WATER FOR 104-105 WK (STUDY DURATION: 105 WK), Dose: 0, 1, 5, 25 MG/KG IN DISTILLED WATER FOR 104-105 WK (STUDY DURATION: 105 WK)) was “inactive; negative”. For the same molecule, the carcinogen call (Species: MOUSE, Strain/Sex: B6C3F1/MALE, Route: GAVAGE, Dose: 0, 25 MG/KG IN WATER 5 D/WK FOR 104 WK, CONTROL AND DOSED GROUPS FED AD LIBITUM (STUDY DURATION: 104 WK)) was “inactive; negative”, the carcinogen call (Species: MOUSE, Strain/Sex: B6C3F1/MALE, Route: GAVAGE, Dose: 0, 25 MG/KG IN WATER 5 D/WK FOR 104 WK, CONTROL GROUP DIET RESTRICTED TO LIMIT WEIGHTS TO 85% OF AD LIBITUM FED GROUP (S) was “inactive; negative” and the carcinogen call (Species: MOUSE, Strain/Sex: B6C3F1/MALE, Route: GAVAGE, Dose: 0, 25 MG/KG IN WATER 5 D/WK FOR 104 WK, CONTROL GROUP WAS WEIGHT-MATCHED TO DOSED GROUP (STUDY DURATION: 104 WK)) was “inactive; negative”. For the same molecule, the carcinogen call (Species: MOUSE, Strain/Sex: B6C3F1/MALE, Route: GAVAGE, Dose: 0, 25 MG/KG IN WATER 5 D/WK FOR 157 WK, CONTROL GROUP DIET RESTRICTED TO LIMIT WEIGHTS TO 85% OF AD LIBITUM-FED GROUPS () was “inactive; negative”, the carcinogen call (Species: RAT, Strain/Sex: F344/FEMALE, Route: GAVAGE, Dose: 1, 5, 25 MG/KG IN DISTILLED WATER FOR 104 WK (STUDY DURATION: 104 WK), Dose: 1, 5, 25 MG/KG IN DISTILLED WATER FOR 104 WK (STUDY DURATION: 104 WK)) was “inactive; negative” and the carcinogen call (Species: RAT, Strain/Sex: F344/MALE, Route: GAVAGE, Dose: 0, 1, 5, 25 MG/KG IN DISTILLED WATER FOR 104 WK (STUDY DURATION: 104 WK), Dose: 0, 1, 5, 25 MG/KG IN DISTILLED WATER FOR 104 WK (STUDY DURATION: 104 WK)) was “inactive; negative”.

For `CCN(CC)CC#CC(C)(C)OC(=O)C(O)(c1ccccc1)C1CCCCC1` (stereo unspecified), the carcinogen call (Species: MOUSE, Strain/Sex: B6C3F1/FEMALE, Route: ORAL, Dose: 0, 30, 100, 300 MG/KG/D IN DIET FOR 78 WK (STUDY DURATION: 78 WK), Dose: 0, 30, 100, 300 MG/KG/D IN DIET FOR 78 WK (STUDY DURATION: 78 WK)) was “inactive; negative”, the carcinogen call (Species: MOUSE, Strain/Sex: B6C3F1/MALE, Route: ORAL, Dose: 0, 30, 100, 300 MG/KG/D IN DIET FOR 78 WK (STUDY DURATION: 78 WK), Dose: 0, 30, 100, 300 MG/KG/D IN DIET FOR 78 WK (STUDY DURATION: 78 WK)) was “inactive; negative” and the carcinogen call (Species: RAT, Strain/Sex: F344/FEMALE, Route: ORAL, Dose: 0, 30, 100 MG/KG/D IN DIET FOR 2 YR (STUDY DURATION: 2 YR), Dose: 0, 30, 100 MG/KG/D IN DIET FOR 2 YR (STUDY DURATION: 2 YR)) was “inactive; negative”. The carcinogen call (Species: RAT, Strain/Sex: F344/MALE, Route: ORAL, Dose: 0, 10, 30, 100 MG/KG/D IN DIET FOR 2 YR (STUDY DURATION: 2 YR), Dose: 0, 10, 30, 100 MG/KG/D IN DIET FOR 2 YR (STUDY DURATION: 2 YR)) was “inactive; negative”.

`CC(C)=CCl` was tested, and the carcinogen call (Species: MOUSE, Strain/Sex: B6C3F1/FEMALE, Route: GAVAGE, Dose: 0, 100, 200 MG/KG IN CORN OIL 5 D/WK FOR 102 WK, Dose: 0, 100, 200 MG/KG IN CORN OIL 5 D/WK FOR 102 WK, Tumor Site: Type of Lesion: FORESTOMACH: SQUAMOUS CELL CARCINOMA, SQUAMOUS CELL PAPILLOMA) was “active; positive”, the carcinogen call (Species: MOUSE, Strain/Sex: B6C3F1/MALE, Route: GAVAGE, Dose: 0, 100, 200 MG/KG IN CORN OIL 5 D/WK FOR 102 WK, Dose: 0, 100, 200 MG/KG IN CORN OIL 5 D/WK FOR 102 WK, Tumor Site: Type of Lesion: FORESTOMACH: SQUAMOUS CELL CARCINOMA, SQUAMOUS CELL PAPILLOMA, PREPUTIAL GLAND: SQUAMOUS CELL CARCINOMA) was “active; positive” and the carcinogen call (Species: RAT, Strain/Sex: F344/FEMALE, Route: GAVAGE, Dose: 0, 100, 200 MG/KG IN CORN OIL 5 D/WK FOR 103 WK, Dose: 0, 100, 200 MG/KG IN CORN OIL 5 D/WK FOR 103 WK, Tumor Site: Type of Lesion: NASAL CAVITY: CARCINOMA (NOS), CARCINOMA (NOS) OR SQUAMOUS CELL CARCINOMA, ADENOCARCINOMA, ESOPHAGUS: SQUAMOUS CELL CARC) was “active; positive”. For the same molecule, the carcinogen call (Species: RAT, Strain/Sex: F344/MALE, Route: GAVAGE, Dose: 0, 100, 200 MG/KG IN CORN OIL 5 D/WK FOR 103 WK, Dose: 0, 100, 200 MG/KG IN CORN OIL 5 D/WK FOR 103 WK, Tumor Site: Type of Lesion: NASAL CAVITY: CARCINOMA (NOS), SQUAMOUS CELL CARCINOMA, ADENOCARCINOMA, ESOPHAGUS: SQUAMOUS CELL PAPILLOMA, SQUAMOUS CEL) was “active; positive”.

With `O=[N+]([O-])c1ccc2c(c1)Cc1ccccc1-2` the carcinogen call (Species: RAT, Strain/Sex: WISTAR/MALE, Route: ORAL, Dose: 0, 0.24, 0.95, 2.37 MMOL/KG DIET FOR 11 MO FOLLOWED BY BASAL DIET FOR 13 MO (STUDY DURATION: 24 MO), Dose: 0, 0.24, 0.95, 2.37 MMOL/KG DIET FOR 11 MO FOLLOWED BY BASAL DIET FOR 13 MO (STUDY DURATION: 24 MO), Tumor Site: Type of Lesion: LIVER: HEPATOCELLULAR CARCINOMA, FORESTOMACH: SQUAMOUS CELL CARCINOMA, KIDNEY: CARCINOMA, Tumor Site: Type of Lesion: LIVER: HEPATOCELLULAR CARCINOMA, FORESTOMACH: SQUAMOUS CELL CARCINOMA, KIDNEY: CARCINOMA) was “active; positive”.

In the case of `ClCc1ccccc1`, the carcinogen call (Species: MOUSE, Strain/Sex: B6C3F1/FEMALE, Route: ORAL (GAVAGE), Dose: 0, 50, 100 MG/KG BW 3 X A WK FOR 2 YRS (TEST MATERIAL SOLVENT: CORN OIL), Dose: 0, 50, 100 MG/KG BW 3 X A WK FOR 2 YRS (TEST MATERIAL SOLVENT: CORN OIL), Tumor Site: Type of Lesion: FORESTOMACH: CARCINOMA AND PAPILLOMA, LUNG: ALVEOLAR-BRONCHIOLAR ADENOMA OR CARCINOMA (HIGH DOSE ONLY, P=0.053)) is reported as “active; positive”, the carcinogen call (Species: MOUSE, Strain/Sex: B6C3F1/MALE, Route: ORAL (GAVAGE), Dose: 0, 50, 100 MG/KG BW 3 X A WK FOR 2 YRS (TEST MATERIAL SOLVENT: CORN OIL), Dose: 0, 50, 100 MG/KG BW 3 X A WK FOR 2 YRS (TEST MATERIAL SOLVENT: CORN OIL), Tumor Site: Type of Lesion: FORESTOMACH: CARCINOMA AND PAPILLOMA, LIVER: CARCINOMA OR ADENOMA (LOWER DOSE ONLY), CIRCULATORY SYSTEM: HEMANGIOMA OR H, Tumor Site: Type of Lesion: FORESTOMACH: CARCINOMA AND PAPILLOMA, LIVER: CARCINOMA OR ADENOMA (LOWER DOSE ONLY), CIRCULATORY SYSTEM: HEMANGIOMA OR H) is reported as “active; positive” and the carcinogen call (Species: RAT, Route: SUBCUTANEOUS, Tumor Site: Type of Lesion: INJECTION SITE) is reported as “active; positive”. The carcinogen call (Species: RAT, Strain/Sex: F344/FEMALE, Route: ORAL (GAVAGE), Dose: 0, 15, 30 MG/KG BW 3 X A WK FOR 2 YRS (TEST MATERIAL SOLVENT: CORN OIL), Dose: 0, 15, 30 MG/KG BW 3 X A WK FOR 2 YRS (TEST MATERIAL SOLVENT: CORN OIL), Tumor Site: Type of Lesion: THYROID: C-CELL NEOPLASMS) was “active; positive” and the carcinogen call (Species: RAT, Strain/Sex: F344/MALE, Route: ORAL (GAVAGE), Dose: 0, 15, 30 MG/KG BW 3 X A WK FOR 2 YRS (TEST MATERIAL SOLVENT: CORN OIL), Dose: 0, 15, 30 MG/KG BW 3 X A WK FOR 2 YRS (TEST MATERIAL SOLVENT: CORN OIL)) was “inactive; negative”.
